Data published in patent US4418079A, “Conjugated ketone compounds in preventing platelet thrombosis” (Sumitomo Chemical Company, Limited, priority 1978, dated 1983).
≈ marks a conversion by molar mass, not a printed value. Where a name gives a salt, the structure may show the parent alone. Read-outs that look alike come from different tables or passages of the source.

Tests used:
[1] = system: Neuroleptic activity (Anti apomorphine test); test: Neuroleptic activity (anti apomorphine test); format: in vivo, rat; conditions: for neuroleptic activity, in words: rat, in vivo
Source text: No. ED50 (rat, s.c., mg/kg)
*P. A. J. Janssen et al.: ArzneimittelForschung, 15, 104-117 (1965)

[2] = system: ADP induced platelet aggregation; test: In vitro inhibition of ADP induced platelet aggregation (aggregometer method of Born, modified by Mustard); format: cell-based, rabbit; conditions: Oryctolagus cuniculus
Description: (§1) The aggregometer method of Born [G. V. R. Born: J.Physiol., London, 162, 67 (1962)] as modified by Mustard et al. [J. F. Mustard et al.: J.Lab.Clin.Med., 64, 548 (1964)] was used to assess the in vitro activity of various compounds as to inhibition of collagen and adenosine diphosphate (ADP) induced platelet aggregation. Platelet rich plasma (PRP) was separated by centrifugation from citrated (3.8%) rabbit blood. ADP in final concentration of […] prepared according to the method described by Evans et al. [G. Evans et al.: J.Exp. Med., 128, 877 (1968)] was used to induce aggregation. The test compounds were dissolved in buffer solution so that 0.05 ml added to PRP would yield the desired test concentration. Vehicle control trials were done and compared with aggregation induced in platelet rich plasma containing various concentrations of the test compounds. Dose response curves were obtained, and 50% inhibitive concentration (IC50) values were calculated.

[3] = system: collagen induced platelet aggregation; test: In vitro inhibition of collagen induced platelet aggregation (aggregometer method of Born, modified by Mustard); format: cell-based, rabbit; conditions: Oryctolagus cuniculus
Description: as §1

[4] = system: blood platelet aggregation; test: Blood platelet anti-aggregation activity (general statements); format: cell-based, rabbit; conditions: compared with compound [A] / compounds of U.S. Pat. No. 4,012,515
Description: as §1

[5] = system: ADP induced platelet aggregation; test: Ex vivo inhibition of ADP induced aggregation in PRP after oral administration to rats; conditions: Rattus norvegicus, PRP 1 hour after oral administration, read-out: ED50, 50% inhibition of the aggregation (ADP)
Description: (§2) The conjugated ketone compounds [I] were also tested ex vivo in rats where ADP or collagen was used to induce aggregation in PRP samples obtained 1 hour after oral administration. Blood was drawn after dosing and the procedure of platelet aggregation was the same as the in vitro experiments. Inhibitory values were calculated compared with the activity of PRP samples of vehicle treated rats. The dose required to produce 50% inhibition of the aggregation (ED50) was determined by dose response data obtained in this manner.

[6] = system: collagen induced platelet aggregation; test: Ex vivo inhibition of collagen induced aggregation in PRP after oral administration to rats; conditions: Rattus norvegicus, PRP 1 hour after oral administration, read-out: ED50, 50% inhibition of the aggregation (collagen)
Description: as §2

[7] = in vitro, ADP, Table 2, read-out: Blood platelet aggregation inhibitory activity IC50, ADP
[8] = in vitro, Collagen, Table 2, read-out: Blood platelet aggregation inhibitory activity IC50, Collagen
[9] = in vitro, rabbit PRP, ADP induced, Table 1, read-out: Inhibitory activity IC50, ADP
[10] = in vitro, rabbit PRP, collagen induced, Table 1, read-out: Inhibitory activity IC50, Collagen

| Structure (SMILES) | IC50 [2, 9] | IC50 [3, 10] | other results |
| --- | --- | --- | --- |
| O=C(/C=C/CN1CCC(O)(c2cccc(C(F)(F)F)c2)CC1)c1ccc(F)cc1 [A, reference compound] | – | – | ED50 ([1]; Rattus norvegicus, sc, read-out: Neuroleptic activity (Anti apomorphine test) ED50): 0.1 mg/kg; IC50 [2, 7]: 9 µg/mL (≈ 22.1 µM); IC50 [3, 8]: 3.5 µg/mL (≈ 8.59 µM) |
| CN(C)C/C=C/C(=O)c1ccccc1 [Compound 1] | 3.3 µg/mL (≈ 17.4 µM) | 2 µg/mL (≈ 10.6 µM) | – |
| CCN(C)C/C=C/C(=O)c1ccccc1 [Compound 2] | 3 µg/mL (≈ 14.8 µM) | 2.2 µg/mL (≈ 10.8 µM) | – |
| CCN(CC)C/C=C/C(=O)c1ccccc1 [Compound 3, N-(4-Phenyl-4-oxo-2-trans-butenyl)-N,N-diethylamine hydrobromide] | 3.3 µg/mL | 1.5 µg/mL | neuroleptic activity, in words [1]: does not produce any slight degree of neuroleptic activity; neuroleptic activity, in words ([1]; sc): No effect at 10 mg/kg; IC50 [2, 7]: 3.3 µg/mL; IC50 [3, 8]: 1.5 µg/mL; blood platelet anti-aggregation activity, in words [4]: more potent than the compound [A] in blood platelet anti-aggregation activity; ED50 [5]: 0.3 mg/kg; ED50 [6]: 3 mg/kg |
| CCCN(C/C=C/C(=O)c1ccccc1)CCC [Compound 4] | 2.5 µg/mL (≈ 10.2 µM) | 1.3 µg/mL (≈ 5.3 µM) | – |
| CC(C)N(C/C=C/C(=O)c1ccccc1)C(C)C [Compound 5] | 3.7 µg/mL (≈ 15.1 µM) | 1.6 µg/mL (≈ 6.52 µM) | – |
| CCCCN(C/C=C/C(=O)c1ccccc1)CCCC [Compound 6] | 5.2 µg/mL (≈ 19 µM) | 2.7 µg/mL (≈ 9.87 µM) | – |
| CN(C/C=C/C(=O)c1ccccc1)C12CC3CC(CC(C3)C1)C2 [Compound 7] | 3.6 µg/mL (≈ 11.6 µM) | 2.4 µg/mL (≈ 7.76 µM) | – |
| CN(C/C=C/C(=O)c1ccccc1)C1CCCCC1 [Compound 8] | 1.8 µg/mL (≈ 6.99 µM) | 3.7 µg/mL (≈ 14.4 µM) | – |
| O=C(/C=C/CN1CCCC1)c1ccccc1 [Compound 9] | 2.5 µg/mL (≈ 11.6 µM) | 1.2 µg/mL (≈ 5.57 µM) | – |
| O=C(/C=C/CN1CCCCC1)c1ccccc1 [Compound 10] | 5.2 µg/mL (≈ 22.7 µM) | 3.2 µg/mL (≈ 14 µM) | ED50 [6]: 2 mg/kg |
| CCN(CC)CC/C=C/C(=O)c1ccccc1 [Compound 11] | 6 µg/mL (≈ 25.9 µM) | 1.8 µg/mL (≈ 7.78 µM) | – |
| CCN(CC)C/C=C/C(=O)c1ccccc1Cl [Compound 12] | 3.1 µg/mL (≈ 12.3 µM) | 2.8 µg/mL (≈ 11.1 µM) | – |
| O=C(/C=C/CN1CCCCC1)c1cccc(Cl)c1 [Compound 13] | 3.1 µg/mL (≈ 11.8 µM) | 3.1 µg/mL (≈ 11.8 µM) | – |
| CCN(CC)C/C=C/C(=O)c1ccc(Cl)cc1 [Compound 14] | 1.6 µg/mL (≈ 6.36 µM) | 2.5 µg/mL (≈ 9.93 µM) | – |
| O=C(/C=C/CN1CCCCC1)c1ccc(Cl)cc1 [Compound 15] | 4.8 µg/mL (≈ 18.2 µM) | 1.6 µg/mL (≈ 6.07 µM) | – |
| O=C(/C=C/CN1CCCCC1)c1ccc(Br)cc1 [Compound 16] | 3.2 µg/mL (≈ 10.4 µM) | 3 µg/mL (≈ 9.73 µM) | – |
| CCN(CC)C/C=C/C(=O)c1ccc(C)cc1 [Compound 17] | 2.3 µg/mL (≈ 9.94 µM) | 1.5 µg/mL (≈ 6.48 µM) | – |
| Cc1ccc(C(=O)/C=C/CN2CCCCC2)cc1 [Compound 18] | 2 µg/mL (≈ 8.22 µM) | 3.4 µg/mL (≈ 14 µM) | – |

| Structure (SMILES) | IC50 [2, 9] | IC50 [3, 10] | other results |
| --- | --- | --- | --- |
| CCN(CC)C/C=C/C(=O)c1ccc(OC)cc1 [Compound 19] | 3.7 µg/mL (≈ 15 µM) | 3.5 µg/mL (≈ 14.2 µM) | – |
| CCN(CC)C/C=C/C(=O)c1ccc2c(c1)OCO2 [Compound 20] | 1.3 µg/mL (≈ 4.97 µM) | 3.7 µg/mL (≈ 14.2 µM) | – |
| CSc1ccccc1C(=O)/C=C/CN1CCCCC1 [Compound 21] | 3.2 µg/mL (≈ 11.6 µM) | 3.7 µg/mL (≈ 13.4 µM) | – |
| CSc1ccc(C(=O)/C=C/CN(C)C)cc1 [Compound 22] | 1.2 µg/mL (≈ 5.1 µM) | 2.2 µg/mL (≈ 9.35 µM) | – |
| CCN(CC)C/C=C/C(=O)c1ccc(SC)cc1 [Compound 23] | 1.4 µg/mL (≈ 5.31 µM) | 2.4 µg/mL (≈ 9.11 µM) | – |
| CCCN(C/C=C/C(=O)c1ccc(SC)cc1)CCC [Compound 24] | 3.6 µg/mL (≈ 12.4 µM) | 2.6 µg/mL (≈ 8.92 µM) | – |
| CSc1ccc(C(=O)/C=C/CN2CCCC2)cc1 [Compound 25] | 3 µg/mL (≈ 11.5 µM) | 1.1 µg/mL (≈ 4.21 µM) | – |
| CSc1ccc(C(=O)/C=C/CN2CCCCC2)cc1 [Compound 26] | 1.2 µg/mL (≈ 4.36 µM) | 1.5 µg/mL (≈ 5.45 µM) | – |
| CCN(CC)C/C=C/C(=O)c1ccccc1C(F)(F)F [Compound 27] | 3 µg/mL (≈ 10.5 µM) | 4.2 µg/mL (≈ 14.7 µM) | – |
| O=C(/C=C/CN1CCCCC1)c1ccc(C(F)(F)F)cc1 [Compound 28] | 2.7 µg/mL (≈ 9.08 µM) | 3.1 µg/mL (≈ 10.4 µM) | – |
| CCN(CC)C/C=C/C(=O)c1ccc2ccccc2c1 [Compound 29] | 1.25 µg/mL (≈ 4.68 µM) | 1.7 µg/mL (≈ 6.36 µM) | – |
| O=C(/C=C/CN1CCCCC1)c1ccc2ccccc2c1 [Compound 30] | 2.2 µg/mL (≈ 7.87 µM) | 2.2 µg/mL (≈ 7.87 µM) | – |
| CCN(CC)C/C=C/C(=O)c1ccco1 [Compound 31] | 3 µg/mL (≈ 14.5 µM) | 1.8 µg/mL (≈ 8.68 µM) | – |
| CCCCCCN(C)C/C=C/C(=O)c1ccco1 [Compound 32] | 4.5 µg/mL (≈ 18 µM) | 5.8 µg/mL (≈ 23.3 µM) | – |
| O=C(/C=C/CN1CCCCC1)c1ccco1 [Compound 33] | 3.8 µg/mL (≈ 17.3 µM) | 2.2 µg/mL (≈ 10 µM) | – |
| CCN(CC)C/C=C/C(=O)c1cccs1 [Compound 34] | 3 µg/mL (≈ 13.4 µM) | 2.3 µg/mL (≈ 10.3 µM) | – |
| O=C(/C=C/CN1CCCCC1)c1cccs1 [Compound 35] | 2.8 µg/mL (≈ 11.9 µM) | 1.8 µg/mL (≈ 7.65 µM) | – |
| O=C(/C=C/CN1CC2CCC(CC2)C1)c1ccccc1 [Compound 36] | 2.7 µg/mL (≈ 10 µM) | 1.2 µg/mL (≈ 4.45 µM) | – |
| COc1ccc(Cc2nccc3cc(OC)c(OC)cc23)cc1OC [Papaverine, reference compound] | – | – | IC50 ([2]; read-out: Inhibitory activity IC50, ADP): 65 µg/mL (≈ 192 µM); IC50 ([3]; read-out: Inhibitory activity IC50, Collagen): 60 µg/mL (≈ 177 µM) |
